From patent US10889569B2, “Condensed ring group azacyclobutyl triazole derivative, preparation method therefor and use thereof in medicine” (Jiangsu Hengrui Medicine Co., Ltd., priority 2016, dated 2021)

Experiments:
human V1bR = human V1bR (Homo sapiens, UniProt P47901); assay: Inhibition activity on human V1bR (Fluo-4 calcium assay, HEK293/human V1bR pool cells); format: cell-based; conditions: vasopressin 3 nM
Description: The inhibition effect of the compounds of the present invention on the activity of human V1bR protein expressed in HEK293/human V1bR cells was determined by the following experimental method:
The pcDNA3.1-V1bR plasmid was transferred into HEK293 cells with the Lipofectamine® 3000 transfection reagent; G418 was added on the next day, and the HEK293/human V1bR pool cell lines were obtained.
(§1) HEK293/human V1bR pool cells were inoculated in a 96-well plate with an inoculation density of 25,000 cells/well one day in advance. On the next day, a loading buffer containing Fluo-4 dye was formulated using the reagents in the Fluo-4 NW calcium assay kit, and the culture medium was then removed; 100 μl of the loading buffer containing Fluo-4 dye were added to each well, and the plate was incubated at 37° C. for 30 minutes. After that, the plate was moved to room temperature and equilibrated for 10 minutes. The compounds were formulated into 10^6, 10^5, 10^4, 10^3, 10^2 and 10^1 nM. 1 μl of the compounds in each concentration was added to each well, and the plate was incubated at room temperature for 10 minutes. 50 μl of vasopressin polypeptide (3 nM) were automatically added by the machine, and the values were immediately detected at 494/516 nM by the flexstation 3 microplate reader. IC50 values of the compounds were calculated by Graphpad prism software using fluorescence signals corresponding to different concentrations.
The inhibition activity of the compounds of the present invention on human V1bR was determined by the above test, and the obtained IC50 values are shown in Table 3.

human V2R = human V2R (Homo sapiens (Human), UniProt P30518); assay: Inhibition activity on human V2R (cAMP HTRF assay, HEK293/human V2R pool cells); format: cell-based; conditions: vasopressin
Description: The inhibition effect of the compounds of the present invention on the activity of human V2R protein expressed in HEK293/human V2R cells was determined by the following experimental method:
The pcDNA3.1-V2R plasmid was transferred into HEK293 cells with the Lipofectamine® 3000 transfection reagent; G418 was added on the next day, and the HEK293/human V2R pool cell lines were obtained.
HEK293/human V2R pool cells were dissociated with the cell dissociation solution (enzyme-free), thereby dissociating the cells from the cell culture dish into individual cells. Then the cell solution was blown well, and centrifuged to remove the supernatant. The cells were resuspended in the test buffer 1 (1×HBSS+20 mM HEPES+0.1% BSA) and counted. The cell density was adjusted to 1250 cells/5 μl, i.e., 2.5*10^5/ml.
The compounds were formulated into a series of concentrations of 20 mM, 6.67 mM, 2.22 mM, 0.74 mM, 0.25 mM, 0.08 mM, 27.4 μM, 9.14 μM, 3.05 μM, 1.02 μM, 0.34 μM and 0 μM (DMSO) with pure DMSO. The compounds were then diluted into a 4-fold working concentration solution with the test buffer 2 (test buffer 1+1 mM IBMX).
Agonist: 460 μM vasopressin was used as the mother liquor, which was formulated at 2 μM with DMSO, and then diluted to 0.5 nM with the test buffer 2.
Standards: The first point was 20 μl of a stock solution (2848 nM), which was diluted successively to a total of eleven concentrations in a 4-fold concentration gradient with the test buffer 1 from the second point.
1. The well-mixed cells were added to a 384-well plate (5 μl/well) without changing the tip.
2. The test compounds and positive compound formulated were added (2.5 μl/well), and the tips were changed.
3. The plate was centrifuged at 1000 rpm for 1 min, shaken for 30 sec to mix well, and incubated at room temperature for 30 min.
4. The standard curve wells were added with the test buffer 2 (5 μl/well).
5. The formulated agonist was added (2.5 μl/well), and the tips were changed; the plate was centrifuged at 1000 rpm for 1 min, shaken for 30 sec to mix well, and incubated at room temperature for 30 min.
6. cAMP-d2 (a component in the cAMP dynamic 2 kit) and Anti-cAMP-Eu-Cryptate (a component in the cAMP dynamic 2 kit) were formulated in the dark, which were then mixed well with cAMP lysate (a component in the cAMP dynamic 2 kit) in a ratio of 1:4. Each well was added with the formulated cAMP-d2 solution (5 μl/well), followed by addition of Anti-cAMP-Eu-Cryptate (5 μl/well). The plate was shaken for 30 sec to mix well, and incubated in the dark at room temperature for 1 h.
The HTRF Signals were Read by the PheraStar Multi-Function Microplate Reader.
The data in this test was processed using the data processing software Graphpad Prism.
The inhibition activity of the compounds of the present invention on human V2R was determined by the above test, and the IC50 values obtained are shown in Table 4.

human V1aR = human V1aR (Homo sapiens (Human), UniProt P37288); assay: Inhibition activity on human V1aR (Fluo-4 calcium assay, HEK293/human V1aR stably transfected cells); format: cell-based; conditions: vasopressin 3 nM
Description: The inhibition effect of the compounds of the present invention on the activity of human V1 aR protein expressed in HEK293/human V1aR stably transfected cells was determined by the following experimental method:
The pcDNA3.1-V1aR plasmid was transferred into HEK293 cells with the Lipofectamine® 3000 transfection reagent; G418 was added on the next day to screen, and monoclonal cell lines were selected.
as §1, with “V1aR stably transfected” for “V1bR pool”, “at” for “into”
The inhibition activity of the compounds of the present invention on human V1aR was determined by the above test, and the obtained IC50 values are shown in Table 2.

human OTR = human OTR (Homo sapiens, UniProt P30559); assay: Inhibition activity on human OTR (Fluo-4 calcium assay, HEK293/human OTR stably transfected cells); format: cell-based; conditions: oxytocin 3 nM
Description: The inhibition effect of the compounds of the present invention on the activity of human OTR protein expressed in HEK293/human OTR stably transfected cells was determined by the following experimental method:
The pcDNA3.1-hOTR plasmid was transferred into HEK293 cells with the Lipofectamine® 3000 transfection reagent; G418 was added on the next day to screen, and monoclonal cell lines were selected.
as §1, with “OTR stably transfected” for “V1bR pool”, “at” for “into”, “oxytocin” for “vasopressin”
The inhibition activity of the compounds of the present invention on human OTR was determined by the above test, and the obtained IC50 values are shown in Table 1.

[1] = Pharmacokinetics assay in rats after intragastrical administration; format: in vivo, SD rats; conditions: Sprague-Dawley, rat, plasma, po, 30 mg/kg, intragastric, male rats
Description: Male SD rats were used as test animals. The drug concentration in plasma at different time points was determined by LC/MS/MS method after intragastrical administration of the compounds of Examples 2, 17, 34, 37, 38, 39 and 43 to rats. The pharmacokinetic behavior of the compounds of the present invention was studied and evaluated in rats.
Twenty-one healthy adult male Sprague-Dawley (SD) rats were purchased from Shanghai Jiesijie Laboratory Animal Co., LTD, with Certificate No.: SCXK (Shanghai) 2013-0006, and equally divided into 7 groups (3 rats per group).
A certain amount of the test compound was weighed, and added with 2.5% by volume of DMSO and 97.5% by volume of 10% solutol HS-15 to formulate a […] colorless, clear and transparent solution.
After an overnight fast, SD rats were administered intragastrically the test compounds at an administration dosage of 30.0 mg/kg and an administration volume of 10.0 mL/kg.
The rats were intragastrically administered the compounds of Examples 2, 17, 34, 37, 38, 39 and 43. 0.2 mL of blood was taken from the orbital sinus before administration and at 0.5, 1.0, 2.0, 4.0, 6.0, 8.0, 11.0 and 24.0 hours after administration. The samples were stored in heparinized tubes, and centrifuged for 10 minutes at 4° C. at 3500 rpm to separate the plasma. The plasma samples were stored at −20° C. The rats were fed 2 hours after administration.
The content of the test compounds in the plasma of rats after intragastrical administration of the test compounds at different concentrations was determined: 50 μL of rat plasma at each time after administration was taken, added with 50 μL of the internal standard solution of camptothecin (100 ng/mL) and 150 μL of acetonitrile, vortex-mixed for 5 minutes, and centrifuged for 10 minutes (4000 rpm). 3 μL of the supernatant was taken from the plasma samples for LC/MS/MS analysis.

human V1aR, sequence (P37288 whole entry): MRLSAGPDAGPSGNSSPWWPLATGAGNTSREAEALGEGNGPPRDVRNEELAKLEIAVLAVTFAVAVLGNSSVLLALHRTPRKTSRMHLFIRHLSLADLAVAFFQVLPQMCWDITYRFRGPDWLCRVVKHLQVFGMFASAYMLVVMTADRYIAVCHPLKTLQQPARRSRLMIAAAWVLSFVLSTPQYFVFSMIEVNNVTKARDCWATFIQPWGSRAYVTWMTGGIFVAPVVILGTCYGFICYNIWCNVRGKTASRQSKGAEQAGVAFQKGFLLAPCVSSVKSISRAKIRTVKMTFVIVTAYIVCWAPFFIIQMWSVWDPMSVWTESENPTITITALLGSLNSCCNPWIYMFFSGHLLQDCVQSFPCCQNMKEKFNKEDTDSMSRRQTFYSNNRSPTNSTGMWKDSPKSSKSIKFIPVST
human V2R, sequence (P30518 whole entry): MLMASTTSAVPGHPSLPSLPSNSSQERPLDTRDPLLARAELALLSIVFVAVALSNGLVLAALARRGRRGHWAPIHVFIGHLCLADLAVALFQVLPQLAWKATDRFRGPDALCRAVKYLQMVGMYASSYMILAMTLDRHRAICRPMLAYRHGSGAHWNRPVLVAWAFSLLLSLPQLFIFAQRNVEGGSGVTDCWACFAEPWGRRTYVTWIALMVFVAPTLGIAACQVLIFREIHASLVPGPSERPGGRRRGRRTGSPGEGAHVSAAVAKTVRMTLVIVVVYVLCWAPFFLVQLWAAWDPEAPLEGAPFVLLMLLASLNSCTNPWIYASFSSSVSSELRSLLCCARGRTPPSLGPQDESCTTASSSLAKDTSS

| IC50 (human V1bR) [µM] | IC50 (human V2R) [µM] | IC50 (human V1aR) [µM] | IC50 (human OTR) [µM] | SMILES | also measured |
| --- | --- | --- | --- | --- | --- |
|  | 25.7 | 2.3 | 0.221 | COCc1nnc(N2CC(c3coc4cc(F)ccc34)C2)n1-c1ccc(OC)nc1 [Example 11, 5-(3-(3-(6-Fluorobenzofuran-3-yl)azetidin-1-yl)-5-(methoxymethyl)-4H-1,2,4-triazol-4-yl)-2-methoxypyridine] |  |
| 61 | 1.4 |  | 0.007 | CCOCc1nnc(N2CC(N3CCCc4cc(F)ccc43)C2)n1-c1ccc(OC)nc1 [Example 26, 1-(1-(5-(Ethoxymethyl)-4-(6-methoxypyridin-3-yl)-4H-1,2,4-triazol-3-yl)azetidin-3-yl)-6-fluoro-1,2,3,4-tetrahydroquinoline] |  |
|  | 52 |  |  | COCc1nnc(N2CC(N3CCc4cc(F)ccc43)C2)n1-c1ccc(OC)nc1 [Example 23, 5-Fluoro-1-(1-(5-(methoxymethyl)-4-(6-methoxypyridin-3-yl)-4H-1,2,4-triazol-3-yl)azetidin-3-yl)indoline] |  |
|  |  | 1.7 | 0.004 | COc1ccc(-n2c(COC(F)F)nnc2N2CC(N3CCOc4cc(F)ccc43)C2)cn1 [Example 37, 4-(1-(5-((Difluoromethoxy)methyl)-4-(6-methoxypyridin-3-yl)-4H-1,2,4-triazol-3-yl)azetidin-3-yl)-7-fluoro-3,4-dihydro-2H-benzo[b][1,4]oxazine] | Vd/F ([1]; read-out: Apparent distribution volume Vz/F): 56.3 ± 66 L/kg; AUC ([1]; read-out: Area under curve AUC): 8180 ± 9850 ng·h/mL; CL/F ([1]; read-out: Clearance CLz/F): 201 ± 223 mL/min/kg; half-life ([1]; read-out: Half-life T1/2 (converted)): 2.95 ± 0.42 h; Cmax ([1]; read-out: Plasma concentration Cmax): 1120 ± 950 ng/mL; MRT ([1]; read-out: Residence time MRT): 4.9 ± 1.36 h |
| 77.2 | > 100 | 23 |  | COc1ccc(-n2c(C)nnc2N2CC(N3CCOc4cc(F)ccc43)C2)cn1 [Example 32, 7-Fluoro-4-(1-(4-(6-methoxypyridin-3-yl)-5-methyl-4H-1,2,4-triazol-3-yl)azetidin-3-yl)-3,4-dihydro-2H-benzo[b][1,4]oxazine] |  |

More lines, now with the values behind:

| SMILES | IC50 (human V1bR) [µM] | IC50 (human V2R) [µM] | IC50 (human V1aR) [µM] | IC50 (human OTR) [µM] | also measured |
| --- | --- | --- | --- | --- | --- |
| COCc1nnc(N2CC(c3ccnc4cc(F)ccc34)C2)n1-c1ccc(OC)nc1 [Example 1, 7-Fluoro-4-(1-(5-(methoxymethyl)-4-(6-methoxypyridin-3-yl)-4H-1,2,4-triazol-3-yl)azetidin-3-yl)quinoline] | 448 | > 100 | 18.1 |  |  |
| CCOCc1nnc(N2CC(N3CCOc4cc(F)ccc43)C2)n1-c1ccc(OC)nc1 [Example 31, 4-(1-(5-(Ethoxymethyl)-4-(6-methoxypyridin-3-yl)-4H-1,2,4-triazol-3-yl)azetidin-3-yl)-7-fluoro-3,4-dihydro-2H-benzo[b][1,4]oxazine] | 54.5 | 5.8 | 3.5 | 0.079 |  |
| COCc1nnc(N2CC(N3C(=O)COc4cc(F)ccc43)C2)n1-c1ccc(OC)nc1 [Example 18, 7-Fluoro-4-(1-(5-(methoxymethyl)-4-(6-methoxypyridin-3-yl)-4H-1,2,4-triazol-3-yl)azetidin-3-yl)-2H-benzo[b][1,4]oxazin-3(4H)-one] | 59.5 | 59.4 | 59.5 |  |  |
| CCOCc1nnc(N2CC(N3CCCc4cc(F)ccc43)C2)n1-c1ccc2c(c1)OCO2 [Example 27, 1-(1-(4-(Benzo[d][1,3]dioxolan-5-yl)-5-(ethoxymethyl)-4H-1,2,4-triazol-3-yl)azetidin-3-yl)-6-fluoro-1,2,3,4-tetrahydroquinoline] | 13.9 | 9.1 |  | 0.008 |  |
